Earlier results in patent US12569628B2, “Delivery of medicinal gas in a liquid medium” (Third Pole, Inc., priority 2022, dated 2026).
Read-outs that look alike come from different tables or passages of the source.

Columns and labels:
immune system = settings: low concentrations

Question: Which “Henry's law constant kH” value (NO in alcohol) does the source give for [N]=O [NO, nitric oxide] here?
Answer: The value was “approximately 6.65×10^−5 mol/m^3 Pa”.

Question: What about the “Henry's law constant kH” value (NO in water) of the same molecule?
Answer: Its value is 1.9×10^−5 mol/m^3 Pa.

Question: And the “concentration at which NO stimulates the immune system” value (immune system)?
Answer: Its value is 10^−12 to 10^−9 M.
